One data set deals with 293T cells. Put plainly: Cell viability of 293T cell lines treated with cisplatin (crystal violet). The class given is cell-based, human. Particulars: 293T cells stably expressing the construct vs empty vector pLNCX; cisplatin 0-100 μg/ml, 72 hours. Here is the method:
FIG. 2.—Cell viability and activation of the JNK and p38 death pathways in 293T cell lines: pLNCX and 24.2, treated with cisplatin. A) Cell viability. After seeding the 293T cells: expressing the empty vector (pLNCX) and GSE 24.2 (24.2) in 24-well plates, they were incubated with concentrations between 0-100 μg/ml of cisplatin. The cell viability was measured by means of the crystal violet technique after 72 hours of exposure to the drug. The data represent the mean of two experiments performed in quadruplicate. B) Activation kinetics. Subsequently, the activation of JNK and p38 was studied using antibodies that specifically recognise the active forms. As a load control, the levels of JNK-1 were detected.
FIG. 4.—Viability of the 293T cell lines: pLNCX, 24.2, DSK5′ and DSK treated with cisplatin. The cell lines described above (pLNCX and 24.2), the DSK 5′ cell line, which expresses a fragment of dyskerin described in the preceding figure, and a fourth one that overexpresses the complete cDNA of dyskerin (DSK) have been used. The viability was analyzed as shown in FIG. 1 A. The data represent the mean of two experiments performed in quadruplicate. […]
Growth curves. […] The number of cells was determined by estimating the absorbance at 595 nm. […]

For data set [1], the system named is hTERT promoter. Briefly: hTERT-luc reporter (luciferase) assay in 293T cells. The class given is cell-based, human. The settings on record: 293T cells transiently transfected with construct vs empty vector; hTERT-luc, 24 hours. Here is the method:
FIG. 8.—Activity of the hTERT promoter in the 293T cell lines: pLNCX and 24.2 and in 293T cells transiently transfected with the pLNCX-24.2 construct and the pLNCX empty plasmid. A) Both the pLNCX and the 24.2 cells were transiently transfected with 0.25 μg of the hTERT-luc reporter vector. The cells were seeded in 60-mm plates. After 24 hours of transfection, the cells were lysed and the luciferase activity of 10 μg of total protein was quantified. As a transfection control, the cells were co-transfected with a reporter vector, CMV-Renilla. B) The 293T cells were transfected with the pLNCX vector and the 24.2 plasmid (5 μg), and both were co-transfected with 0.25 μg of the hTERT-luc reporter vector. After seeding the cells as in A, they were transfected with pLNCX and 24.2, and co-transfected with the hTERT-luc reporter vector; subsequently, they were treated as in A. As a transfection control, the CMV-Renilla reporter vector was used. The data correspond to the ratio of relative units of luciferase with respect to non-transfected cells. Each point represents the mean±the standard deviation obtained from 3 independent experiments. C) The 293T cells were transfected with the different GSE 24.4, DSK, TRUB I, TRUB II constructs and the pLNCX empty plasmid (5 μg), and co-transfected with 0.25 μg of the hTERT-luc reporter vector. The cells were seeded in 60-mm plates; after 24 hours of transfection, the cells were lysed and the luciferase activity of 10 μg of total protein was quantified. As a transfection control, the cells were co-transfected with a CMV-Renilla reporter vector. The data correspond to the ratio of relative units of luciferase with respect to non-transfected cells. Each point represents the mean±the standard deviation obtained from 3 independent experiments.
FIG. 9.—Activity of the hTERT promoter following treatment with cisplatin. A) Both the pLNCX cell line and the 24.2 cell line were transiently transfected with 0.25 μg of the hTERTIuc reporter vector. After 24 hours of transfection, they were treated with 3 μg/ml of cisplatin for 8 hours. The cells were seeded in 60-mm plates; after 24 hours of transfection and following treatment with cDDP, the cells were lysed and the luciferase activity of 10 μg of total protein was quantified. As a transfection control, the cells were co-transfected with a CMV-Renilla reporter vector. B) 293T cells which, after being transiently transfected with pLNCX and 24.2, were co-transfected with 0.25 μg of the hTERT-luc reporter vector and treated as in A. After seeding the cells as in A, they were transfected with pLNCX and 24.2, and co-transfected with the hTERT-luc reporter vector; subsequently, they were treated as in A. As a transfection control, the CMV-Renilla reporter vector was used. The data correspond to the ratio of relative units of luciferase with respect to non-transfected cells. Each point represents the mean±the standard deviation obtained from 3 independent experiments.
A) The 293T cells were co-transfected with different constructs (10 μg/DNA per million cells) and the hTERT-luc reporter (1 μg per million cells). The specified cell lines were co-transfected with the hTERT-luc reporter and different quantities of the Mad/myc expression vector. (B) The specified cell lines were co-transfected with the HIV-luc reporter and with different quantities of the Mad/myc expression vector. After 24 h of transfection, the cells were stimulated with 50 ng/ml of TNF-α for 6 hours and the luciferase activity was analysed as described above. CMV-Renilla (0.1 μg/ml per million cells) was used as a control for the transfection efficiency. The data represent the mean of two experiments performed in quadruplicate.
The pseudouridine synthase TRUB domain of dyskerin comprises two structural subdomains: the Trub I and II motifs (Zucchini et al., 2003). These two domains are critical to maintain the global protein structure of dyskerin. […]

The test system of data set [2] is hTERT promoter. Briefly: hTERT-luc reporter assay in VA13 cells. The class given is cell-based. Particulars: co-transfection with hTERT-luc, 24 h. Here is the method: FIG. 10.—Telomerase activity and expression levels of hTERT and hTR in the cells of patients with dyskeratosis congenita and in VA13 cells transiently transfected with the 24.2 plasmid or the pLNCX empty vector. A) Telomerase activity measured by means of the TRAP assay in the cells of patients with dyskeratosis congenita (DC-1, DC-2 and DC-3) and in the carrier parent (DC-C) following electroporation of 45 μg of the pLNCX empty plasmid (−) or the pLNCX 24.2 vector (+) by 15 million cells. B) RT-PCR of the RNA from cells of one of the patients with dyskeratosis congenita, DC3 transfected with the empty vector and DC3 transfected with the 24.2 plasmid, using oligos specific for hTERT and hTR. As a starting RNA control, oligos for the amplification of GAPDH were used. C) Telomerase activity in VA13 cells. […] 24 hours later, the telomerase activity was analysed as described above, using dilutions of the protein extracts from each transfection. […] RNA levels were detected as described above. […] After 24 h of transfection, the luciferase activity was analyzed as described above. […]
Luciferase assay. The transcriptional regulation of hTERT was measured by means of the Luciferase reporter gene, preceded by a 3,402-pb sequence of the hTERT promoter. […] The cell lysates were centrifuged and the expression of luciferase was quantified with 10 μg of protein from the supernatant, using a Berthold luminometer. […]
(In a reporter assay the amount or activity of a reporter protein is the signal.)

On to “DSK 5′: construct containing the first 500 nucleotides of human dyskerin, cloned in pLNCX [reference compound]”, for which, in the data set on 293T cells, the “cell viability in response to cisplatin” value is given as “do not have any activity whatsoever”.
As to “Trub I: fragment of GSE 24.2 containing the Trub I domain (SEQ ID NO11, peptide SEQ ID NO12) (DNA GGTTTCATTAATCTTGACAAGCCCTCTAACCCCTCTTCCCATGAGGTGGTAGCC; expressed or natural sequence; listed as Homo sapiens)”, the “activity of the hTERT promoter, transient expression” value in the data set with hTERT promoter [1] is on record as “act by activating the expression of the hTERT promoter”. Moreover, the “activity of the hTERT promoter in VA13 cells” value with hTERT promoter [2] is given as “activated the hTERT promoter”.

B1: Trub II: fragment of GSE 24.2 containing the Trub II domain (SEQ ID NO13, peptide SEQ ID NO14) (nucleic acid, listed as Homo sapiens)
DNA: CACAGTGGTACTCTGGATCCCAAGGTGACTGGTTGTTTAATCGTGTGCATAGAACGAGCCACTCGCTTGGTGAAG
modifications: expressed or natural sequence
Consider B1, for which the “activity of the hTERT promoter, transient expression” value in the data set with hTERT promoter [1] is given as “act by activating the expression of the hTERT promoter”.

The record behind these values is patent publication US9587002B2, “Sequence of nucleotides and peptides GSE 24.2 of dyskerin, which can induce telomerase activity, method for obtaining same, therapeutic compositions and applications thereof” (CONSEJO SUPERIOR DE INVESTIGACIONES CIENTIFICAS, priority 2005, dated 2017).
